Test results as given in PubChem BioAssay (NCI).
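Values below derive from 48-hour exposures of cells grown in 96-well plates, with endpoints linearly interpolated between the two concentrations bracketing the appropriate inhibition level. At the GI50, growth is halved. TGI is the concentration that stops growth completely.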

How the values were obtained:
Assay in all cases: DTP human tumour cell line panel, 48 h
786-0 renal = tested on: 786-0 renal
A498 renal = tested on: A498 renal
A549 NSCLC = tested on: A549 NSCLC
ACHN renal = tested on: ACHN renal
BT-549 breast = tested on: BT-549 breast
CAKI-1 renal = tested on: CAKI-1 renal
CCRF-CEM leukemia = tested on: CCRF-CEM leukemia
COLO 205 colon = tested on: COLO 205 colon
DU-145 prostate = tested on: DU-145 prostate
EKVX NSCLC = tested on: EKVX NSCLC
HCC-2998 colon = tested on: HCC-2998 colon
HCT-116 colon = tested on: HCT-116 colon
HCT-15 colon = tested on: HCT-15 colon
HL-60(TB) leukemia = tested on: HL-60(TB) leukemia
HOP-62 NSCLC = tested on: HOP-62 NSCLC
HOP-92 NSCLC = tested on: HOP-92 NSCLC
HS 578T breast = tested on: HS 578T breast
HT29 colon = tested on: HT29 colon
IGROV1 ovarian = tested on: IGROV1 ovarian
K-562 leukemia = tested on: K-562 leukemia
KM12 colon = tested on: KM12 colon
LOX IMVI melanoma = tested on: LOX IMVI melanoma
M14 melanoma = tested on: M14 melanoma
MALME-3M melanoma = tested on: MALME-3M melanoma
MCF7 breast = tested on: MCF7 breast
MDA-MB-231 breast = tested on: MDA-MB-231 breast
MDA-MB-435 = tested on: MDA-MB-435
MDA-MB-468 breast = tested on: MDA-MB-468 breast
MOLT-4 leukemia = tested on: MOLT-4 leukemia
NCI-H226 lung = tested on: NCI-H226 lung
NCI-H23 lung = tested on: NCI-H23 lung
NCI-H460 lung = tested on: NCI-H460 lung
NCI-H522 lung = tested on: NCI-H522 lung
NCI/ADR-RES ovarian = tested on: NCI/ADR-RES ovarian
OVCAR-3 ovarian = tested on: OVCAR-3 ovarian
OVCAR-4 ovarian = tested on: OVCAR-4 ovarian
OVCAR-8 ovarian = tested on: OVCAR-8 ovarian
PC-3 prostate = tested on: PC-3 prostate
RPMI-8226 leukemia = tested on: RPMI-8226 leukemia
SF-268 CNS = tested on: SF-268 CNS
SF-295 CNS = tested on: SF-295 CNS
SF-539 CNS = tested on: SF-539 CNS
SK-MEL-2 melanoma = tested on: SK-MEL-2 melanoma
SK-MEL-5 melanoma = tested on: SK-MEL-5 melanoma
SK-OV-3 ovarian = tested on: SK-OV-3 ovarian
SN12C renal = tested on: SN12C renal
SNB-19 CNS = tested on: SNB-19 CNS
SNB-75 CNS = tested on: SNB-75 CNS
SR leukemia = tested on: SR leukemia
SW-620 colon = tested on: SW-620 colon
T-47D breast = tested on: T-47D breast
TK-10 renal = tested on: TK-10 renal
U251 CNS = tested on: U251 CNS
UACC-257 melanoma = tested on: UACC-257 melanoma
UACC-62 melanoma = tested on: UACC-62 melanoma
UO-31 renal = tested on: UO-31 renal

Molecule `O=C1NC(=O)c2c1c1c3cc(Br)ccc3[nH]c1c1oc3ccc(F)cc3c21` has a GI50 (786-0 renal) of 3.62 µM, a TGI (786-0 renal) of 21.9 µM and a GI50 (A498 renal) of 2.02 µM. The TGI (A498 renal) was 3.54 µM, the GI50 (A549 NSCLC) was 6.84 µM and the TGI (A549 NSCLC) was greater than 100 µM. For the same molecule, the GI50 (ACHN renal) was 1.97 µM, the TGI (ACHN renal) was 5.3 µM and the GI50 (BT-549 breast) was 9.86 µM. It also gave a TGI (BT-549 breast) greater than 100 µM, a GI50 (CAKI-1 renal) of 2.25 µM and a TGI (CAKI-1 renal) greater than 100 µM. It also gave a GI50 (CCRF-CEM leukemia) of 0.2 µM, a TGI (CCRF-CEM leukemia) greater than 100 µM and a GI50 (COLO 205 colon) of 2.96 µM. It also gave a TGI (COLO 205 colon) greater than 100 µM, a GI50 (DU-145 prostate) of 3.21 µM and a TGI (DU-145 prostate) greater than 100 µM. It also gave a GI50 (EKVX NSCLC) of 3.99 µM, a TGI (EKVX NSCLC) greater than 100 µM and a GI50 (HCC-2998 colon) of 3.39 µM. The TGI (HCC-2998 colon) was 45.6 µM, the GI50 (HCT-116 colon) was 3 µM and the TGI (HCT-116 colon) was greater than 100 µM. The GI50 (HCT-15 colon) was 2.93 µM, the TGI (HCT-15 colon) was greater than 100 µM and the GI50 (HL-60(TB) leukemia) was greater than 100 µM. It also gave a TGI (HL-60(TB) leukemia) greater than 100 µM, a GI50 (HOP-62 NSCLC) of 1.58 µM and a TGI (HOP-62 NSCLC) of 3.52 µM. It also gave a GI50 (HOP-92 NSCLC) of 1.59 µM, a TGI (HOP-92 NSCLC) of 4.52 µM and a GI50 (HS 578T breast) of 1.91 µM. It also gave a TGI (HS 578T breast) of 4.66 µM, a GI50 (HT29 colon) of 3.59 µM and a TGI (HT29 colon) greater than 100 µM. It also gave a GI50 (IGROV1 ovarian) of 1.03 µM, a TGI (IGROV1 ovarian) of 3.15 µM and a GI50 (K-562 leukemia) of 3.66 µM. It also gave a TGI (K-562 leukemia) greater than 100 µM, a GI50 (KM12 colon) of 2.87 µM and a TGI (KM12 colon) greater than 100 µM. The GI50 (LOX IMVI melanoma) was 1.43 µM, the TGI (LOX IMVI melanoma) was 2.77 µM and the GI50 (M14 melanoma) was 3.16 µM. For the same molecule, the TGI (M14 melanoma) was greater than 100 µM, the GI50 (MALME-3M melanoma) was 1.42 µM and the TGI (MALME-3M melanoma) was 4.01 µM. It also gave a GI50 (MCF7 breast) of 0.877 µM, a TGI (MCF7 breast) of 3.32 µM and a GI50 (MDA-MB-231 breast) of 1.57 µM. The TGI (MDA-MB-231 breast) was 3.58 µM, the GI50 (MDA-MB-435) was 4.24 µM and the TGI (MDA-MB-435) was greater than 100 µM. The GI50 (MDA-MB-468 breast) was 1.35 µM, the TGI (MDA-MB-468 breast) was 3.06 µM and the GI50 (MOLT-4 leukemia) was 0.533 µM. It also gave a TGI (MOLT-4 leukemia) greater than 100 µM, a GI50 (NCI-H226 lung) of 1.1 µM and a TGI (NCI-H226 lung) of 2.6 µM. The GI50 (NCI-H23 lung) was 1.75 µM, the TGI (NCI-H23 lung) was 4.06 µM and the GI50 (NCI-H460 lung) was 1.46 µM. For the same molecule, the TGI (NCI-H460 lung) was 3.32 µM, the GI50 (NCI-H522 lung) was 1.42 µM and the TGI (NCI-H522 lung) was 3.31 µM. For the same molecule, the GI50 (NCI/ADR-RES ovarian) was 3.43 µM, the TGI (NCI/ADR-RES ovarian) was greater than 100 µM and the GI50 (OVCAR-3 ovarian) was 2.14 µM. The TGI (OVCAR-3 ovarian) was 5.3 µM, the GI50 (OVCAR-4 ovarian) was 1.55 µM and the TGI (OVCAR-4 ovarian) was 3.33 µM. For the same molecule, the GI50 (OVCAR-8 ovarian) was 1.67 µM, the TGI (OVCAR-8 ovarian) was 4.77 µM and the GI50 (PC-3 prostate) was 1.69 µM. For the same molecule, the TGI (PC-3 prostate) was 4.99 µM, the GI50 (RPMI-8226 leukemia) was 3.71 µM and the TGI (RPMI-8226 leukemia) was greater than 100 µM. For the same molecule, the GI50 (SF-268 CNS) was 2.61 µM, the TGI (SF-268 CNS) was 7.8 µM and the GI50 (SF-295 CNS) was 5.95 µM. The TGI (SF-295 CNS) was greater than 100 µM, the GI50 (SF-539 CNS) was 1.79 µM and the TGI (SF-539 CNS) was 3.53 µM. The GI50 (SK-MEL-2 melanoma) was 2.21 µM, the TGI (SK-MEL-2 melanoma) was 6.17 µM and the GI50 (SK-MEL-5 melanoma) was 3.72 µM. For the same molecule, the TGI (SK-MEL-5 melanoma) was greater than 100 µM, the GI50 (SK-OV-3 ovarian) was 2.04 µM and the TGI (SK-OV-3 ovarian) was 5.37 µM. The GI50 (SN12C renal) was 1.71 µM, the TGI (SN12C renal) was 3.69 µM and the GI50 (SNB-19 CNS) was 2.17 µM. The TGI (SNB-19 CNS) was 6.04 µM, the GI50 (SNB-75 CNS) was 2.09 µM and the TGI (SNB-75 CNS) was 7.99 µM. For the same molecule, the GI50 (SR leukemia) was 4.47 µM, the TGI (SR leukemia) was greater than 100 µM and the GI50 (SW-620 colon) was 2.39 µM. It also gave a TGI (SW-620 colon) greater than 100 µM, a GI50 (T-47D breast) of 1.24 µM and a TGI (T-47D breast) of 4.51 µM. It also gave a GI50 (TK-10 renal) of 3.47 µM, a TGI (TK-10 renal) greater than 100 µM and a GI50 (U251 CNS) of 1.73 µM. It also gave a TGI (U251 CNS) of 3.87 µM, a GI50 (UACC-257 melanoma) of 6.09 µM and a TGI (UACC-257 melanoma) greater than 100 µM. It also gave a GI50 (UACC-62 melanoma) of 1.39 µM, a TGI (UACC-62 melanoma) of 4.88 µM and a GI50 (UO-31 renal) of 0.358 µM. The TGI (UO-31 renal) was greater than 100 µM.
